Results: patent publication US20060211651A1, “Persulfated oligosaccharide acting on selectins and chemokine” (Taisho Pharmaceutical Co., Ltd., priority 2002, published 2006)

Key:
P-selectin-Ig = assay: ELISA, biotinylated versican binding to P-selectin-Ig in presence of glycosaminoglycan; conditions: 100 μg/ml glycosaminoglycan; FIG. 5
Method: (§1) A well of a 96 well flat bottom microtiter plate was coated with BSA (5 μg/ml), anti-versican monoclonal antibody 2B1 (5 μg/ml), CD44-Ig (7 μg/ml), L-selectin-Ig (3 μg/ml), P-selectin-Ig (3 μg/ml) or chemokine (1 μg/ml), and then blocked with a phosphate buffered physiological saline containing 3% by weight of BSA. As the above chemokine, secondary lymphoid tissue chemokine, γ-interferon inducible protein-10, platelet factor 4, stromal cell-derived factor-1β [manufactured by Pepro Tech] and stromal cell-derived factor-1α [manufactured by Pepro Tech] were used.
(§2) Thereafter, the plate was washed with the buffer A, and enzyme-linked immunosorbent assay was performed in the same manner as that of the previous report [Kawashima, H. et al., J. Biol. Chem., 275, 35448-35456 (2000)]. Binding was determined by measuring absorbance at 620 nm using alkaline phosphatase-conjugated streptavidin and Blue Phos™ substrate. In FIG. 5, expression of an abscissa axis is the same as that of FIG. 4.

[1] = target: T1, stromal cell-derived factor-1β (Homo sapiens, UniProt P48061); assay: ELISA, biotinylated versican binding to SDF-1β in presence of glycosaminoglycan; conditions: 100 μg/ml glycosaminoglycan; FIG. 5
T1 construct: purchased Pepro Tech
T1 sequence (P48061 22-93): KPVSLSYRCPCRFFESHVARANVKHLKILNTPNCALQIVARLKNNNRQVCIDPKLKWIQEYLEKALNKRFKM
Method: as §1, §2

L-selectin-Ig = target: T2, L-selectin-Ig (Homo sapiens, UniProt P14151); assay: Binding inhibition assay (ELISA), biotinylated versican to L-selectin-Ig, various concentrations; conditions: dose-dependent, FIG. 2 panel A
T2 construct: purchased R & D Systems Inc
T2 sequence (P14151 with tags, fused parts or gaps limits assumed): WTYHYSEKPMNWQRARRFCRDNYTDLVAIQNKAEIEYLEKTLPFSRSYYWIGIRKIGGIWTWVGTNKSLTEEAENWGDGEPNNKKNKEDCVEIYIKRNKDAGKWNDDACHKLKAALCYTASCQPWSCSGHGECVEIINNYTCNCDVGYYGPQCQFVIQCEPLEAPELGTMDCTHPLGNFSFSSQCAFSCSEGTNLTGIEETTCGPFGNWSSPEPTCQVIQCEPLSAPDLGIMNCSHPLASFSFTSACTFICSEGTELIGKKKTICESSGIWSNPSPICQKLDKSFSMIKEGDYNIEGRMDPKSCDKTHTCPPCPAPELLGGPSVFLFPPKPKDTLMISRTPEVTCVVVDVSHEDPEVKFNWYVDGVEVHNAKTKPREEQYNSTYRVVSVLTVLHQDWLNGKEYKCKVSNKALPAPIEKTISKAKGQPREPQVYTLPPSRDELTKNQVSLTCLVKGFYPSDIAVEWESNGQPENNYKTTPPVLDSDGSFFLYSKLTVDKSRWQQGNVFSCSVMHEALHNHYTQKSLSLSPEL
Method: Inhibition assay of binding between versican and each of L-selectin, P-selectin and CD44 was performed as follows. First, each well on a 96 well flat bottom microtiter plate (Coster EIA/RIA plate No. 3690) was coated with L-selectin-Ig (3 μg/ml), P-selectin-Ig (4 μg/ml) or CD44-Ig (0.25 μg/ml) by a conventional procedure. […] The plate was incubated at room temperature for 2 hours. Thereafter, the plate was washed with the buffer A, and enzyme-linked immunosorbent assay was performed in the same manner as described in Kawashima, H. et al. [J. Biol. Chem., 275, 35448-35456 (2000)]. Binding was determined by measuring absorbance at 620 nm using alkaline phosphatase-conjugated streptavidin and Blue Phos™ substrate.

monomeric L-selectin = target: T3, monomeric L-selectin (Homo sapiens, UniProt P14151); assay: BIAcore surface plasmon resonance, immobilized glycosaminoglycan vs monomeric L-selectin; assay type: binding; conditions: for Kd / koff / kon: L-selectin, GAG immobilized, 25° C.; for interaction with immobilized glycosaminoglycan (sensorgram): monomeric L-selectin
T3 construct: purchased Genzyme-Techne
T3 sequence (P14151 39-332 limits assumed): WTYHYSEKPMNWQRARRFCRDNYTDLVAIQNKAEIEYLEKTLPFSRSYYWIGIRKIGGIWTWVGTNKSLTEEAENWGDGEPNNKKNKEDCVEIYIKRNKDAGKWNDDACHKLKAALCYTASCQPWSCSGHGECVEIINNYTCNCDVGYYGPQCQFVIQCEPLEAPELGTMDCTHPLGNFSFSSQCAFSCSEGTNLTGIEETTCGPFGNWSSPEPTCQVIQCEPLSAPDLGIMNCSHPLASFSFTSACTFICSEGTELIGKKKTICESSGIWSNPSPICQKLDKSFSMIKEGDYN
Method: Affinity kinetics of the interaction between various CS/DS chains and each of L-selectin, P-selectin, CD44 and chemokine were examined by surface plasmon resonance using BIAcore™ biosensor [manufactured by BIAcore AB].
All experiments were performed at 25° C. At stages of washing and dissociation, buffer C (20 mM HEPES-NaOH, 0.15M NaCl, 1 mM CaCl2, 1 mM MgCl2, pH6.8) was used as a running buffer.
First, about 1.8 to 2.0 kiloresonance unit (1 kiloresonance unit=1 ng/mm^2) of streptavidin were covalently immobilized onto B1 sensor chip via a primary amine group using an amine coupling kit [manufactured by Amercham-Bioscience] according to the instruction provided by the manufacturer. The remaining activated groups were blocked with 150 μl of 1M ethanolamine-HCl (pH8.5). Then, each glycosaminoglycan which had been biotinylated at a reducing end was injected to a sensor tip surface by using EZ-link™ biotin-LC-hydrazide [manufactured by Pierce] so as to obtain about 150 resonance unit of an immobilization level, according to the method of Sadir et al. [J. Biol. Chem., 276, 8288-8296 (2001); all teachings of which are hereby incorporated by reference].
Binding assay was performed by injecting continuously each of various concentrations of secondary lymphoid tissue chemokine, γ-interferon inducible protein-10, stromal cell-derived factor-1β, monomeric L-selectin [manufactured by Genzyme-Techne], monomeric P-selectin [manufactured by Genzyme-Techne] and monomeric CD44, to a glycosaminoglycan-coupled sensor tip at a flow rate of 30 μl/min for 0 to 90 seconds, and then injecting a running buffer thereto. A response in resonance unit was recorded as a function of a time.
A sensor tip surface was regenerated with 300 μl of 1 M NaCl when chemokine or CD44 was used, or regenerated with 300 μl of 1 M NaCl, and additional 100 μl of 50 mM EDTA (pH8.0), when selectin was used. As a result of regeneration of a sensor tip surface, a remarkable change in a baseline was not observed.
An affinity kinetic parameter was determined by BIAevaluation 3.0 software [manufactured by Pharmacia Biosensor] using a single site binding model. […] In FIG. 6 and Table 3, SLC denotes secondary lymphoid tissue chemokin, IP-10 denotes γ-interferon inducible protein-10, SDF-1β denotes stromal cell-derived factor-1β, CS E denotes chondroitin sulfate E, and CS A denotes chondroitin sulfate A. In addition, in Table 3, Kd value for the interaction between monomeric CD44 and chondroitin sulfate E is a value calculated from a binding amount at equilibrium, and Kd value of the interaction between CD44 and hyaluronic acid is a value calculated using CD44-Ig.

CD44-Ig = assay: ELISA, biotinylated versican binding to CD44-Ig in presence of glycosaminoglycan; design: species or system human; conditions: 100 μg/ml glycosaminoglycan; FIG. 5
Sequence of CD44-Ig (P16070 21-178 limits assumed): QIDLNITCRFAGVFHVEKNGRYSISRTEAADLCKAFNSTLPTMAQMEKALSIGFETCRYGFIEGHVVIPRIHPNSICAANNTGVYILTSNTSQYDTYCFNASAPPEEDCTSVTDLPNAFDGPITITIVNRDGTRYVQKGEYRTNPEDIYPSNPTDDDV
Method: as §1, §2

Substance	inhibition of binding between biotinylated versican and P-selectin (P-selectin-Ig)	inhibition of binding between biotinylated versican and stromal cell-derived factor-1β [1]	inhibition of binding between biotinylated versican and L-selectin-Ig (L-selectin-Ig)	Kd (monomeric L-selectin)	koff (monomeric L-selectin)	kon (monomeric L-selectin)	inhibition of binding between biotinylated versican and CD44-Ig (CD44-Ig)	interaction with immobilized glycosaminoglycan (sensorgram) (monomeric L-selectin)
chondroitin polysulfate [CPS]	inhibited	inhibited	inhibited	47.7 nM	0.000366 s⁻¹	7680 M⁻¹ s⁻¹	not remarkable	–
chondroitin sulfate A [CS A]	–	–	not inhibited	–	–	–	inhibited	did not interact
chondroitin sulfate E [CS E]	inhibited	inhibited	inhibited	21.2 nM	0.000439 s⁻¹	20700 M⁻¹ s⁻¹	inhibited	bound
dermatan polysulfate [DPS]	inhibited	inhibited	inhibited	–	0.000289 s⁻¹	13700 M⁻¹ s⁻¹	inhibited	–
